# Key:
# [1] = Fluorescence spectroscopy (emission, relative quantum yield, brightness); assay type: physicochemical; settings: for ΦF, relative fluorescence quantum yield: MeOH, ICG as standard; for λmax, em: in methanol (Table 1); for ΦB, relative brightness referenced to ICG: product of quantum yield and molar absorptivity, ICG = 1
# Experimental: UV-Vis and Fluorescent Spectroscopic Analysis. Stock solutions (3.0 mM) of the dye and its conjugates were prepared by dissolving them in DMSO. […] The molar extinction coefficient was obtained using Beer's law at 0.1-0.6 μM concentration of the dye. The relative fluorescence quantum yield was determined using the equation: ΦF(x)=(As/Ax)(Fx/Fs)(nx/ns)^2ΦF(s)
# where ΦF(X) is the fluorescence quantum yield, A is the absorbance, F is the area under the emission curve, n is the refractive index of the solvents used in measurement, and the subscripts s and x represent the standard and unknown, respectively. Indocyanine green (ICG) was used as a reference standard.
# [2] = UV-Vis absorption spectroscopy; assay type: physicochemical; settings: for ε / λmax: in 25% aqueous DMSO
# Experimental: UV-Vis and Fluorescent Spectroscopic Analysis. Stock solutions (3.0 mM) of the dye and its conjugates were prepared by dissolving them in DMSO. […] The molar extinction coefficient was obtained using Beer's law at 0.1-0.6 μM concentration of the dye. […]
Compound,"ΦF, relative fluorescence quantum yield [1]","λmax, em [1]","ΦB, relative brightness referenced to ICG [1]","λmax, abs [2]",ε [2],λmax [2],ε (molar absorptivity) [2]
CC1(C)C(=CC=C2CCCC(C=CC3=[N+](CCCS(=O)(=O)[O-])c4ccc5ccccc5c4C3(C)C)=C2c2ccc(C(=O)O)cc2)N(CCCS(=O)(=O)[O-])c2ccc3ccccc3c21.[Na+] [Dye 2a],0.088,811 nm,1.3,800 nm,240 000 M^−1 cm^−1,800 nm,–
CC1(C)C(=CC=C2CCCC(C=CC3=[N+](CCCCS(=O)(=O)[O-])c4ccc5ccccc5c4C3(C)C)=C2c2ccc(C(=O)O)cc2)N(CCCCS(=O)(=O)[O-])c2ccc3ccccc3c21.[Na+] [Dye 2b],0.092,811 nm,1.4,800 nm,240 000 M^−1 cm^−1,800 nm,–
CC1(C)C(=CC=C2CCCC(C=CC3=[N+](CCCCS(=O)(=O)[O-])c4ccc(S(=O)(=O)[O-])cc4C3(C)C)=C2c2ccc(C(=O)O)cc2)N(CCCCS(=O)(=O)[O-])c2ccc(S(=O)(=O)[O-])cc21.[Na+].[Na+].[Na+] [Dye 2c],0.10,785 nm,1.4,770 nm,220 000 M^−1 cm^−1,770 nm,–
"CC1(C)C(/C=C/C=C/C=C/C=C2\N(CCCCS(=O)(=O)O)c3ccc4ccccc4c3C2(C)C)=[N+](CCCCS(=O)(=O)[O-])c2ccc3ccccc3c21 [ICG, indocyanine green, reference compound]",–,807 nm,1,785 nm,–,–,204000 M⁻¹ cm⁻¹
